# In patent US7465814B2, “Sulfonate compound and fluorescent probe using the same” (priority 2003, dated 2008):
# What was measured:
# Assay type in all cases: biochemical
# esterase = experiment: Fluorescent response to esterase (Table 1); settings: relative fluorescence intensity, blank = 10; probe 21.3 μM, esterase 0.5 U/mL, 37° C., 10 minutes
# Procedure: (§1) Moreover, in other conditions than those of the above-described tests, reactivity of all of the compounds 1a to 1d with H2O2, other various kinds of nucleophilic agents, reducing agents and the like also was tested, respectively. More specifically, fluorescent responses of 1a to 1d with respect to a XO-HPX system, a XO-HPX-SOD system, H2O2, ascorbic acid, 1,4-hydroquinone, propylamine, diethylamine, glucose, esterase, a cytochrome P450 reductase+NADPH system, and a diaphorase+NADH system were measured, respectively. Operational processes thereof will be described below. Firstly, 1a to 1d and the above-described reagents were dissolved in HEPES of 10 mM having a pH of 7.4 so as to prepare solutions, respectively. Next, a 96 wellmicroplate was provided, where any of the solutions of 1a to 1d (25 μM, 170 μL) was poured into each of the wells, and furthermore, 30 μL of a blank solution or 30 μL of the solution of the reagent to be reacted therewith was added thereto. Final concentrations of the solutions in the wells were adjusted so that concentrations of the solutions of 1a to 1d respectively could be 21.3 μM, that of XO could be 13.1 mU/mL, those of HPX, H2O2, ascorbic acid, 1,4-hydroquinone, propylamine, diethylamine, glucose, NADPH and NADH respectively could be 50 μM, that of cytochrome P450 reductase could be 68 mU/mL, that of diaphorase could be 65 mU/mL, and that of esterase could be 0.5 U/mL, respectively. Then, after they reacted in the wells at 37° C. for 10 minutes, fluorescent responses were measured respectively. Fluorescence intensity measurement was conducted by using an ETC-272 Peltier thermostatted single cell holder (trade name) manufactured by JASCO Corporation or a SpectraMax GeminiEM fluorescence plate reader (trade name) manufactured by Molecular Devices Corporation provided with a FP-750 spectrofluorometer (trade name) manufactured by JASCO Corporation, and by setting excitation wavelengths and emission wavelengths so that those of 1a, 1b and 1c respectively could be 485 nm and 515 nm, and those of 1d respectively could be 511 nm and 540 nm.
# [1] = Fluorescent response to ascorbic acid (Table 1); settings: relative fluorescence intensity, blank = 10; probe 21.3 μM, ascorbic acid 50 μM, 37° C., 10 minutes
# Procedure: as §1
# [2] = Fluorescent response to H2O2 (Table 1); settings: relative fluorescence intensity, blank = 10; probe 21.3 μM, H2O2 50 μM, 37° C., 10 minutes
# Procedure: as §1
# [3] = Tracking fluorescence on reaction with H2O2 (FIG. 1d); settings: H2O2 40 μM only
# Description: This figure is a graph showing results that are obtained by tracking fluorescence by allowing the compound 1d to react with H2O2 or superoxide produced enzymatically, a horizontal axis thereof represents a reaction time (second), and a vertical axis thereof represents a fluorescence intensity (au). In the figure, (a) represents a result obtained by a reaction in the presence of HPX and XO, (b) represents a result obtained by a reaction in the presence of HPX, XO and SOD, (c) represents a result obtained by a reaction under an anaerobic condition in the presence of HPX, XO and SOD, and (d) represents a result obtained by a reaction with only H2O2. The test results shown in FIG. 1 will be described below in further detail.
# [4] = Capability as superoxide-detecting fluorescent probe (reactivity with superoxide)
# Procedure: Then, by mainly using the compound 1d as a testing compound, the capability thereof as a superoxide-selective fluorescent probe was evaluated, and moreover, a test in a cell system also was conducted. These tests will be described below.
# Thus, it is thought that each compound synthesized from a combination of: a phenolic colorant; and a 2,4-dinitrobenzenesulfonyl group, a 4-trifluoromethyl-2-nitrobenzenesulfonyl group or a 4-nitrobenzenesulfonyl group can be used as a superoxide-detecting fluorescent probe similarly. An example of the usage thereof will be shown in Scheme 8 below. Furthermore, it can be expected that a compound for a fluorescent probe having characteristics that are suitable for its application purpose can be designed and developed freely, by designing the compound of the present invention freely within the limitation defined by the general formula (I) and using the fluorescence mechanism developed by the inventors of the present invention, without being limited to the above-described combinations. Examples of the application purpose of the compound of the present invention are varied, including an application to a faintly coloring technique using superoxide.
# [5] = Fluorescent response to 1,4-hydroquinone (Table 1); settings: relative fluorescence intensity, blank = 10; probe 21.3 μM, 1,4-hydroquinone 50 μM, 37° C., 10 minutes
# Procedure: as §1
smiles,measurement,setting,value
O=C1OC2(c3ccccc31)c1cc(F)c(OS(=O)(=O)c3ccc([N+](=O)[O-])cc3[N+](=O)[O-])c(F)c1Oc1c2cc(F)c(OS(=O)(=O)c2ccc([N+](=O)[O-])cc2[N+](=O)[O-])c1F [Compound 1d],"fluorescent response, esterase",esterase,15
same,"fluorescent response, ascorbic acid",[1],11
same,"fluorescent response, H2O2",[2],11
same,"increase of fluorescence intensity with H2O2, FIG. 1(d)",[3],small enough to be neglected
same,fluorescence response by reacting with superoxide,[4],particularly superior in sensitivity
same,"fluorescent response, 1,4-hydroquinone",[5],11
